Entries after “also recorded” stand apart in the source; their conditions may differ. Ends that are not written are not given here.
Legend:
[1] = molecular target: Leishmania infantum promastigotes; assay type: cell-based; conditions: 72 hours at 26° C., luciferase luminescence (FIG. 2 B), read-out: IC50, promastigote form
Experimental: The antiparasitic activity of the peptides was evaluated on two forms of the parasite Leishmania infantum, the promastigote form and the amastigote form.
The tests of anti-Leishmania activity were carried out with a Leishmania infantum cell line αNEO-αLUC This cell line was obtained by transforming Leishmania infantum strain MHOM/MA/67/ITMAP-263 with the vector pGM αNEO-αLUC containing the luciferase reporter gene (LUC) and the neomycin resistance gene (NEO) such as described in Roy et al. (2000). It was maintained in culture in its two forms, promastigote and amastigote.
Leishmania infantum promastigotes were maintained at 26° C. by one or two weekly passages depending on the number of parasites in the inoculum, in SDM 79 medium supplemented with 10 to 20% decomplemented foetal calf serum and […] porcine haemin and in the presence of 100 U/mL penicillin and 100 μg/mL streptomycin (Brun & Shonenberger, 1979). […] Cell densities were determined by flow cytometry in the presence of propidium iodide on a Facscan cytometer (Excalibur, Becton-Dickinson, Ivry, France).
Emitted luminescence was measured with a luminescence plate reader (Victor, PerkinElmer). […]
The percentage growth was calculated according to the following formula: % growth=[(L mean−bgd)peptide×100]/(L mean−bgd)control […]

[2] = tested on: Pseudomonas aeruginosa (ATCC 27853); experiment: Growth inhibition test in broth medium (MIC); assay type: cell-based; conditions: 18 hrs at 37° C., LB medium
Experimental: (§5) The following strains were used for the antibacterial activity tests: Escherichia coli (ATCC 25922 and ATCC 35218), Staphylococcus aureus (ATCC 25923), Enterococcus faecalis (ATCC 29212), Bacillus megaterium and Pseudomonas aeruginosa (ATCC 27853).
(§6) For each strain, a standard inoculum of 10^5 to 10^6 bacteria/mL (exponential growth phase) was prepared. To this end, a colony isolated on LB agar previously inoculated with one of the strains was cultured in 10 mL of LB broth medium. Liquid cultures were then incubated for 2 to 3 hrs at 37° C. with shaking for the bacteria to reach exponential growth phase. Each bacterial suspension was diluted in LB medium to an OD630nm of 0.01 which corresponds to a concentration of 10^5-10^6 cfu/mL (cfu: colony forming unit).
(§7) The minimum inhibitory concentration (MIC) of each peptide was determined by a test of growth inhibition in broth medium. […] The test was performed in a sterile 96-well microtiter plate. A series of increasing concentrations of each peptide (1 to 400 μM) was first prepared in sterile MilliQ water containing 5% dimethyl sulphoxide (DMSO). […] 50 μL of peptide were aliquoted into each well with 50 μL of bacterial suspension (10^5-10^6 cfu/mL). The microtiter plate was then incubated for 18 hrs at 37° C. with shaking. Bacterial growth was determined by measuring OD at 630 nm (turbidity) on a plate reader. […]

[3] = tested on: Escherichia coli (ATCC 35218); conditions: 18 hrs at 37° C., LB medium
Experimental: as §5, §6, §7

[4] = tested on: Escherichia coli (ATCC 25922); conditions: 18 hrs at 37° C., LB medium
Experimental: as §5, §6, §7

[5] = tested on: human monocyte cell line THP-1; conditions: THP-1, 72 hrs, MTT test (FIG. 3), at antimicrobial concentrations
Experimental: The cytotoxic activity of the antimicrobial peptides was determined on a human monocyte cell line THP-1. Cells were cultured in RPMI medium (10% FCS, 100 U/mL penicillin, 100 μg/mL streptomycin) until reaching exponential growth phase. After counting in a Thoma counting chamber, cell density was adjusted to 6.25×10^5 cells/mL in RPMI 1640 medium. Five-fold concentrated solutions of antimicrobial peptides were prepared in this RPMI medium (300 to 4.7 μM).
Monocytes were aliquoted at 80 μL of cell suspension per well (corresponding to 5×10^4 monocytes/well or 5×10^5 cells/mL final) and mixed with 20 μL of peptide solution (60 to 0.94 μM final concentration). Negative and positive controls were carried out according to the same protocol as for the tests of anti-Leishmania activity. Experiments were done in triplicate for each peptide concentration. Cells were incubated at 37° C., in a 5% CO2 atmosphere for 72 hrs.
After 72 hours, the number of viable THP-1 cells was calculated indirectly by the MTT test (Mosmann, 1983). […] Blue formazan can be detected spectrophotometrically at 570 nm.
A 10 mg/mL MTT solution in PBS buffer (pH 7.4), filtered on a 0.45 μm filter, was aliquoted at 10 μL per well. Plates were then incubated for 4 hrs at 37° C. […] The OD at 570 nm of each well was then measured (Victor plate reader, PerkinElmer) to calculate the IC50.

[6] = tested on: Staphylococcus aureus (ATCC 25923); conditions: 18 hrs at 37° C., LB medium
Experimental: as §5, §6, §7

[7] = tested on: Candida albicans (ATCC 90028); conditions: YPD medium, 30° C.
Experimental: (§8) The minimum inhibitory concentration (MIC) of each peptide was determined by a test of growth inhibition in broth medium. […] The test was performed in a sterile 96-well microtiter plate. A series of increasing concentrations of each peptide (1 to 400 μM) was first prepared in sterile MilliQ water containing 5% dimethyl sulphoxide (DMSO). […] 50 μL of peptide were aliquoted into each well with 50 μL of bacterial suspension (10^5-10^6 cfu/mL). The microtiter plate was then incubated for 18 hrs at 37° C. with shaking. Bacterial growth was determined by measuring OD at 630 nm (turbidity) on a plate reader. Tests were carried out in triplicate for each peptide concentration.
(§9) These strains were first grown on YPD agar for a minimum of 48 hrs. Yeast suspensions were then prepared, exactly as for bacteria, and adjusted to 10^5-10^6 cfu/mL in YPD broth medium.
(§10) The antifungal activity test corresponds to the growth inhibition test in broth medium used for the bacteria (see above) in which LB medium was replaced by YPD medium. Fungal strains were incubated at 30° C.

Bacillus megaterium = conditions: 18 hrs at 37° C., LB medium
Experimental: as §5, §6, §7

[8] = tested on: Enterococcus faecalis (ATCC 29212); conditions: 18 hrs at 37° C., LB medium
Experimental: as §5, §6, §7

[9] = tested on: Candida parapsilosis (ATCC 22019); experiment: Antifungal growth inhibition test in YPD broth (MIC); assay type: cell-based; conditions: YPD medium, 30° C.
Experimental: Fungal strains were incubated at 30° C.

Hemolytic test = assay type: cell-based; conditions: erythrocytes (washed red blood cells), pH 7.4; human erythrocytes, 1 hr at 37° C., concentration inducing hemolysis of 50% of the cells; read-out: LC50 erythrocytes
Experimental: (§1) The hemolytic activity of the antimicrobial peptides was assessed using human erythrocytes from healthy donors. Red blood cell hemolysis is manifested by the release into the reaction medium of hemoglobin, the concentration of which is determined spectrophotometrically at 450 nm.
(§2) Red blood cells were separated from plasma and white blood cells by centrifugation of human blood (900 g, 10 min). The pellet containing red blood cells was washed three times with PBS buffer, pH 7.4. After counting on a Malassez cell, a stock solution of 2.10^7 red blood cells/mL was prepared in the same buffer. A series of concentrations of the peptides to be tested was prepared (1 to 200 μM).
(§3) The test was carried out as follows: 100 μL of the different peptide concentrations were added to 100 μL of the red blood cell suspension. After 1 hr of incubation at 37° C. followed by centrifugation (12,000 g, 15 sec), absorbance of the supernatant was measured at 450 nm. The negative control for this test (0% hemolysis) contained 100 μL of PBS buffer in place of the peptide solution. The positive control (100% hemolysis) contained 100 μL of 0.1% Triton in place of the peptide solution.
(§4) The LC50 value obtained is the mean of three experiments carried out in triplicate and corresponds to the peptide concentration inducing hemolysis of 50% of the cells.

Saccharomyces cerevisiae = conditions: YPD medium, 30° C.
Experimental: as §8, §9, §10

Gram-negative strains = conditions: summary in text for all Gram-negative strains tested
Experimental: as §5, §6, §7

human erythrocytes = experiment: Hemolytic test; assay type: cell-based; conditions: relative to temporin-SHa
Experimental: as §1, §2, §3, §4

Experimental for Escherichia coli ML-35p: as §6, §8
The growth inhibition negative control was obtained by replacing the solution containing the peptide with 50 μL of sterile MilliQ water containing 5% DMSO. […]

**Q.** Which IC50 [1] does the source give for “FLSGIVGMLGKLF-NH2 [temporin-SHa, F-L-S-G-I-V-G-M-L-G-K-L-F]” here?
**A.** ~20 µM

**Q.** And the MIC [2]?
**A.** 31.25 µM

**Q.** What about the MIC [3] of the same substance?
**A.** 10 µM

**Q.** What about the MIC [4] of the same substance?
**A.** 10 µM

**Q.** What about the “Cytotoxic effect on monocytes” value [5] of the same substance?
**A.** not cytotoxic

**Q.** And the MIC [6]?
**A.** 3 µM

**Q.** And the MIC [7]?
**A.** 15 µM

**Q.** And the MIC (Bacillus megaterium)?
**A.** 2.5 µM

**Q.** And the MIC (Escherichia coli ML-35p)?
**A.** 6.25 µM

**Q.** What about the MIC [8] of the same substance?
**A.** 10 µM

**Q.** What about the MIC [9] of the same substance?
**A.** 31.25 µM

**Q.** And the HC50 at 1 hr (Hemolytic test)?
**A.** 25 µM

**Q.** What about the MIC (Saccharomyces cerevisiae) of the same substance?
**A.** 7.9 µM

**Q.** For FLKGIVGMLGKLF-NH2 [[K^3]temporin-SHa], which IC50 [1] is on record?
**A.** ~10 µM

**Q.** What about the MIC [2] of the same substance?
**A.** 3 µM

**Q.** What about the MIC [3] of the same substance?
**A.** 3 µM

**Q.** And the MIC [4]?
**A.** 3 µM

**Q.** And the “Cytotoxic effect on monocytes” value [5]?
**A.** not cytotoxic

**Q.** What about the MIC [6] of the same substance?
**A.** 3 µM

**Q.** And the “MIC, all Gram-negative strains tested” value (Gram-negative strains)?
**A.** 3 µM

**Q.** What about the MIC [7] of the same substance?
**A.** 12.5 µM

**Q.** And the MIC (Bacillus megaterium)?
**A.** 1.5 µM

**Q.** What about the MIC (Escherichia coli ML-35p) of the same substance?
**A.** 3 µM

**Q.** And the MIC [8]?
**A.** 10 µM

**Q.** What about the “Change in hemolytic activity as compared with temporin-SHa” value (human erythrocytes) of the same substance?
**A.** twofold decrease; also recorded: twofold reduction

**Q.** And the HC50 at 1 hr (Hemolytic test)?
**A.** 50 µM

**Q.** And the MIC (Saccharomyces cerevisiae)?
**A.** 6.25 µM
